Laboratory results taken from patent US8921405B2, “Compounds” (Orexo AB, priority 2009, dated 2014).
Where two headings read alike, the source gives them in different places.

Target: T1, recombinant human mPGES-1 (Homo sapiens, UniProt O14684)
T1 construct: made in house; host or cells: Rosetta E. coli (membrane/microsome fraction)
T1 sequence (O14684 1-152): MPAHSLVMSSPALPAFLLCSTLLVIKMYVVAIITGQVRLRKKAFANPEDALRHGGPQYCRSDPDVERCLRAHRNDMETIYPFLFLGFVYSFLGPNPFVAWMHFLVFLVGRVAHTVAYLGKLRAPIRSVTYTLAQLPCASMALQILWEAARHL
Assay: mPGES-1 HTRF assay (inhibition of PGE2 formation from PGH2)
Assay type: biochemical
Procedure: The basis of the assay used is to measure the inhibition of microsomal prostaglandin E2 synthase-1 (mPGES-1) dependent prostaglandin (PG) E2 formation from PGH2 by different compounds. Thus, the formation of PGE2 is used as signal and a lowering of this signal can be interpreted as inhibition of mPGES-1. […] Microsomes from Rosetta E. coli bacteria expressing recombinant human mPGES-1 can be derived as described below: Inoculate 5 ml LB with Amp and Chloro with bacteria from freeze culture. Incubate over night at 37° C. with 200 rpm. Thereafter, inoculate 500-800 ml LB containing Amp and Chloro with the 5 ml on culture and grow to OD640 of 0.6-0.8. Chill the culture to +4° C. before induction. Induce the culture with IPTG at a final concentration of 400 μM. Express the protein at room temp 18-23° C. with 200 rpm shaking over night. The following steps can be performed on the following day: • 1. Spin down the cells in 250 ml centrifuge flasks for 15 min at 7000 rpm • 2. Dissolve the pellet from 250 ml culture in 12.5 ml homogenization buffer • 3. Disintegrate the cells by sonication, 4×10 seconds at 35% amplitude • 4. Add 2.5 ml MgCl2 (100 mM) and DNase 12.5 μl (0.8 mg/ml) and incubate on ice for 30 min • 5. Spin down the bacteria debris and save the supernatant, 7000 rpm for 15 min • 6. Isolate the protein containing membranes in the supernatant by ultracentrifugation 45000×g for 1 hour. • 7. Discard the supernatant and dissolve the pellet in 20 mM KPi buffer and aliquot the enzyme and store aliquots at −80° C. Before each experiment is performed an aliquot of the enzyme is thawed and it can then be dissolved in 0.1 M KPi pH 7.4 buffer containing 2.5 mM GSH. 50 μl of this enzyme solution is subsequently dispensed in a 384-well plate at room temperature. 0.5 μl of the inhibitor dissolved in DMSO is thereafter added to each well and incubated for 25 minutes at room temperature. Subsequently, 2 μl of PGH2 dissolved in an appropriate solvent is added to each well and after one minute at room temperature, the acidified stop solution containing FeCl2 is added. 4 μl of the total volume is transferred to a separate plate and diluted 750-fold in two separate steps before quantification of PGE2. In order to quantitate the amount of PGE2 that has been formed, a homogenous time resolved fluorescent (HTRF) detection of PGE2 can be performed by the use of a commercially available kit from CisBio essentially according to the manufacturer's protocol. […] The sealing film is thereafter removed from the NC wells. • 5 μl Eu3+-cryptate labeled anti-PGE2 can now be added to rows 1 to 24 by using a Multidrop. • The plate can now be covered with sealing film. • The plate can now be centrifuge at 1200 rpm for 1 minute and place at 4° C. overnight. After the over night incubation the fluorescence is measured by the use of an appropriate microplate reader. […] The extent of the specific HTRF is measured as a ratio of the emission intensity at 665 nm vs. that at 620 nm. A standard curve using synthetic PGE2 is used to quantify the amount of PGE2 in unknown samples. The degree of inhibition can be calculated as percent inhibition by dividing the amount of PGE2 formed in unknown samples by the amount of PGE2 formed in control samples.

[1] = compound concentration of 10 μM, HTRF assay, read-out: % inhibition

| IC50 (HTRF assay) | inhibition at 10 µM [1] | Structure (SMILES) | other results |
| --- | --- | --- | --- |
|  | 98% | Cn1c(Nc2cc(CNC(=O)C3(C)CCCCC3)ccc2Cl)nc2cc(C(=O)NCC3CCCO3)ccc21 (centres unmarked) [Example 18, 2-{2-Chloro-5-[(1-methylcyclohexylamido)methyl]phenylamino]-1-methyl-N-[(2-tetrahydrofuryl)methyl]benzimidazole-5-carboxamide] |  |
|  | 100% | CCC1(C(=O)NCc2ccc(Cl)c(Nc3nc4cc(C(=O)Nc5ccc(Br)cc5)ccc4n3C)c2)CCCC1 [Example 46, N-(4-Bromophenyl)-2-{2-chloro-5-[(1-ethylcyclopentylamido)methyl]-phenylamino}-1-methylbenzimidazole-5-carboxamide] |  |
| 1 nM |  | Cn1c(Nc2cc(CNC(=O)C(C)(C)C)ccc2Cl)nc2cc(C(=O)Nc3ccc(F)c(Cl)c3)c(OCC(F)F)cc21 [Example 86, N-(3-Chloro-4-fluoro-phenyl)-2-(2-chloro-5-{[(tert-butylcarbonyl)-amino]-methyl}-phenylamino)-6-(2,2-difluoro-ethoxy)-1-methyl-1H-benzimidazole-5-carboxylic acid amide] |  |
|  | 100% | Cn1c(Nc2cc(CNC(=O)C3(C)CCCCC3)ccc2Cl)nc2cc(Cl)c(NC(=O)OC(C)(C)C)cc21 [Example 5, tert-Butyl 5-chloro-2-{2-chloro-5-[(1-methylcyclohexylamido)methyl]phenylamino}-1-methyl-6-benzimidazolylcarbamate] |  |
|  | 100% | Cn1c(Nc2cc(CNC(=O)C3(C)CCCCC3)ccc2Cl)nc2cc(C(=O)NC3CCCC3)c(Cl)cc21 [Example 3, 6-Chloro-2-{2-chloro-5-[(1-methylcyclohexylamido)methyl]phenylamino}-N-cyclopentyl-1-methylbenzimidazole-5-carboxamide] |  |
|  | 100% | Cn1c(Nc2cc(CNC(=O)C3(C#N)CCCC3)ccc2Cl)nc2cc(C(=O)Nc3ccc(Br)cc3)ccc21 [Example 42, N-(4-Bromophenyl)-2-{2-chloro-5-[(1-cyanocyclopentylamido)methyl]-phenylamino}-1-methylbenzimidazole-5-carboxamide] |  |
| 300 nM |  | COc1cc2c(cc1C(N)=O)nc(Nc1cc(CNC(=O)C3(C(F)(F)F)CC3)ccc1Cl)n2C [Example 65, 2-(2-chloro-5-{[(1-trifluoromethyl-cyclopropanecarbonyl)-amino]-methyl}-phenylamino)-6-methoxy-1-methyl-1H-benzimidazole-5-carboxylic acid amide] |  |

Continued, molecule first:

| Structure (SMILES) | IC50 (HTRF assay) | inhibition at 10 µM [1] | other results |
| --- | --- | --- | --- |
| COc1cc2[nH]c(Nc3cc(CNC(=O)C4(O)CC4)ccc3C(F)(F)F)nc2cc1C(=O)N[C@H]1CC[C@H](C(F)(F)F)CC1 [Example 94, N-(trans-4-Trifluoromethyl-cyclohex-1-yl)-2-(2-trifluoromethyl-5-{[(1-hydroxy-cyclopropane-carbonyl)amino]-methyl}-phenylamino)-6-methoxy-1H-benzimidazole-5-carboxylic acid amide] | 3 nM |  |  |
| Cn1c(Nc2cc(CNC(=O)C3(CN)CC3)ccc2Cl)nc2cc(C(=O)Nc3ccc(Br)cc3)ccc21 [Example 50, 2-(5-{[1-(Aminomethyl)cyclopropylamido]methyl}-2-chlorophenylamino)-N-(4-bromophenyl)-1-methylbenzimidazole-5-carboxamide] |  | 100% |  |
| Cn1c(Nc2cc(CNC(=O)C3(C(F)(F)F)CC3)ccc2Cl)nc2cc(C(=O)NC3CCC(F)(F)CC3)c(OCC(F)F)cc21 [Example 62, N-(4,4-Difluorocyclohexyl)-2-(2-chloro-5-{[(1-trifluoromethyl-cyclopropanecarbonyl)-amino]-methyl}-phenylamino)-6-(2,2-difluoro-ethoxy)-1-methyl-1H-benzimidazole-5-carboxylic acid amide] | 1 nM |  |  |
| Cn1c(Nc2cc(CNC(=O)C3(C(F)(F)F)CC3)ccc2Cl)nc2cc(C(=O)NCCOC(C)(C)C)ccc21 [Example 52, N-(2-tert-Butoxyethyl)-2-{2-chloro-5-[(1-trifluoromethylcyclopropyl-amido)methyl]phenylamino}-1-methylbenzimidazole-5-carboxamide] |  | 96% |  |
| CC(C(=O)NCc1ccc(Cl)c(Nc2nc3cc(C(=O)Nc4ccc(Br)cc4)c(OCC(F)F)cc3n2C)c1)C(F)(F)F (centres unmarked) [Example 73, N-(4-Bromo-phenyl)-2-(2-chloro-5-{[(1-trifluoromethyl-ethyl-carbonyl)-amino]-methyl}-phenylamino)-6-(2,2-difluoro-ethoxy)-1-methyl-1H-benzimidazole-5-carboxylic acid amide] | 3 nM |  |  |
| Cn1c(Nc2cc(CNC(=O)C3(C(F)(F)F)CC3)ccc2Cl)nc2cc(C(=O)NCCCC(F)(F)F)ccc21 [Example 53, 2-{2-Chloro-5-[(1-trifluoromethylcyclopropylamido)methyl]phenylamino}-1-methyl-N-(4,4,4-trifluorobutyl)benzimidazole-5-carboxamide] |  | 100% |  |
| Cn1c(Nc2cc(CNC(=O)C(C)(C)C)ccc2Cl)nc2cc(C(=O)N[C@H]3CC[C@H](C(F)(F)F)CC3)c(OCC(F)(F)F)cc21 [Example 98, N-(trans-4-Trifluoromethyl-cyclohex-1-yl)-1-methyl-2-(2-chloro-5-{[(tert-butylcarbonyl)-amino]-methyl}-phenylamino)-6-(2,2,2-trifluoro-ethoxy)-1H-benzimidazole-5-carboxylic acid amide] | 6 nM |  |  |
| CC(=O)NC(C)c1ccc(Cl)c(Nc2nc3cc(C(=O)Nc4ccc(Br)cc4)ccc3n2C)c1 (centres unmarked) [Example 1, 2-[5-(1-Acetamidoethyl)-2-chlorophenylamino]-N-(4-bromophenyl)-1-methylbenzimidazole-5-carboxamide] |  |  | inhibition at 10 µM: 100% |
| COc1cc2[nH]c(Nc3cc(CNC(=O)C4(C(F)(F)F)CC4)ccc3C(F)(F)F)nc2cc1C(=O)N[C@H]1CC[C@H](C(F)(F)F)CC1 [Example 93, N-(trans-4-Trifluoromethyl-cyclohex-1-yl)-2-(2-trifluoromethyl-5-{[(1-trifluoromethylcyclopropane-carbonyl)amino]-methyl}-phenylamino)-6-methoxy-1H-benzimidazole-5-carboxylic acid amide] | 2 nM |  |  |
| Cn1c(Nc2cc(CNC(=O)C(C)(C)C)ccc2Cl)nc2cc(C(=O)N[C@H]3CC[C@H](C(F)(F)F)CC3)c(OCCF)cc21 [Example 97, N-(trans-4-Trifluoromethyl-cyclohex-1-yl)-1-methyl-2-(2-chloro-5-{[(tert-butylcarbonyl)-amino]-methyl}-phenylamino)-6-(2-fluoro-ethoxy)-1H-benzimidazole-5-carboxylic acid amide] | 5 nM |  |  |
| Cn1c(Nc2cc(CNC(=O)C3(C)COC3)ccc2Cl)nc2cc(C(=O)Nc3ccc(Br)cc3)ccc21 [Example 40, N-(4-Bromophenyl)-2-{2-chloro-5-[(3-methyl-3-oxetanylamido)methyl]-phenylamino}-1-methylbenzimidazole-5-carboxamide] |  | 98% |  |
| Cn1c(Nc2cc(CNC(=O)C3(C(F)(F)F)CC3)c(F)cc2Cl)nc2cc(C(=O)Nc3ccc(Br)cc3)c(OCC(F)F)cc21 [Example 85, N-(4-Bromophenyl)-2-(2-chloro-4-fluoro-5-{[(1-trifluoromethyl-cyclopropanecarbonyl)amino]methyl}phenylamino)-6-(2,2-difluoroethoxy)-1-methyl-1H-benzo[d]imidazole-5-carboxamide] | 2 nM |  |  |
| COCCn1c(Nc2cc(CNC(=O)C3(C(F)(F)F)CC3)ccc2Cl)nc2cc(C(=O)Nc3ccc(Br)cc3)ccc21 [Example 71, N-(4-Bromo-phenyl)-2-(2-chloro-5-{[(1-trifluoromethyl-cyclopropanecarbonyl)-amino]-methyl}-phenylamino)-1-(2-methoxyethyl)-1H-benzimidazole-5-carboxylic acid amide] | 2 nM |  |  |
